Ki, IC50 and Activity data for 22 molecules are collected here from ChEMBL document CHEMBL5131538 (J Med Chem, 2022).

Assay [1] addresses T1, Glucocorticoid receptor (Rattus norvegicus, UniProt P06536).
T1 sequence (P06536 whole entry): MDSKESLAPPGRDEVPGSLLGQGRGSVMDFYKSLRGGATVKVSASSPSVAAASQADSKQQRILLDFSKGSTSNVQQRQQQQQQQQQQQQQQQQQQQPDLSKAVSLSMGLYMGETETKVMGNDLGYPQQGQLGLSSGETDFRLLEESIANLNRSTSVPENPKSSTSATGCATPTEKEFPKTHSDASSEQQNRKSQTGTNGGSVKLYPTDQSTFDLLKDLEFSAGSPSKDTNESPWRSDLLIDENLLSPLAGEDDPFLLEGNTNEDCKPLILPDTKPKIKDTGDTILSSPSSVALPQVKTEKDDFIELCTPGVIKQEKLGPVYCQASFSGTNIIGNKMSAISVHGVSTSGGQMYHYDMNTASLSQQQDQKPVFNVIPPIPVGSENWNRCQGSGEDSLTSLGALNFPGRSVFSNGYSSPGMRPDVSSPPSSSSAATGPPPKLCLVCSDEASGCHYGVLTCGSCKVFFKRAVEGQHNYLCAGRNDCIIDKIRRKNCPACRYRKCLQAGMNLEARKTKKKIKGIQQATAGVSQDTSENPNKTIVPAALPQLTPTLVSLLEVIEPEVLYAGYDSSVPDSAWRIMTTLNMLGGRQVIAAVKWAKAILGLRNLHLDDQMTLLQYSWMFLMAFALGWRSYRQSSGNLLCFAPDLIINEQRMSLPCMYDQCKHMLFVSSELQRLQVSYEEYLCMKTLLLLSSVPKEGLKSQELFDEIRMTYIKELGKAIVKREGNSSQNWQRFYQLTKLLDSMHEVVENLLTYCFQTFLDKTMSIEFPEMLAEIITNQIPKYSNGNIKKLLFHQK
In words: Displacement of [3H]-dexamethasone from rat glucocorticoid receptor incubated overnight by liquid scintillation counting analysis. For orientation: Displacement assays read how much labelled ligand stays bound in the presence of the test substance.

Assay [2] addresses T2, Mineralocorticoid receptor (Rattus norvegicus, UniProt P22199).
T2 sequence (P22199 whole entry): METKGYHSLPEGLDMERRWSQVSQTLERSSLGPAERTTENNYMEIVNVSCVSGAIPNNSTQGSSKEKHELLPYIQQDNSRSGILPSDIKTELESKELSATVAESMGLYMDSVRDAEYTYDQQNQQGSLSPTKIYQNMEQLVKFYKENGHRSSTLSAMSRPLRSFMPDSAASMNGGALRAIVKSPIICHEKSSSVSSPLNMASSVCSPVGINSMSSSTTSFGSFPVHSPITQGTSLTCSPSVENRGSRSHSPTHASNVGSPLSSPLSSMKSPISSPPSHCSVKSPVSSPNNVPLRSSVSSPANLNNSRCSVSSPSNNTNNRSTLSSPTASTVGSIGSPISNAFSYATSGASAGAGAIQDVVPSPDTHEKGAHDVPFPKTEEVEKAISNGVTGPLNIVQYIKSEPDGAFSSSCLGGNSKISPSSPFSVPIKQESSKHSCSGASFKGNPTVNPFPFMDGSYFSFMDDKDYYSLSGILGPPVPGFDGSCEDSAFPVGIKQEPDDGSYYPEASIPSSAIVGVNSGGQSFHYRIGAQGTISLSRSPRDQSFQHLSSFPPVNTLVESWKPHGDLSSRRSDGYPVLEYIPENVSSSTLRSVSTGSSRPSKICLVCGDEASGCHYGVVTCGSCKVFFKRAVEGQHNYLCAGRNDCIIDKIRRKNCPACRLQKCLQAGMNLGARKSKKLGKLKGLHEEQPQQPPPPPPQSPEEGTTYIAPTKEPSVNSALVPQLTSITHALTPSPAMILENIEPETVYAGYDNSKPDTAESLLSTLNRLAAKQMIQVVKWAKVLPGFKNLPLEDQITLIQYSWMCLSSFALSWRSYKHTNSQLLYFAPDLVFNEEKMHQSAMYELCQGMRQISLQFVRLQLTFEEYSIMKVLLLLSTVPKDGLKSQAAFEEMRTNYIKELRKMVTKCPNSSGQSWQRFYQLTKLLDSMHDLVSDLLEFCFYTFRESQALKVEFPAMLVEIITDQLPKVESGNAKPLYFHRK
Description: Displacement of [3H]-aldosterone from rat mineralocorticoid receptor incubated overnight by liquid scintillation counting analysis

Assay [3] concerns the target T3, Mineralocorticoid receptor (Homo sapiens, UniProt P08235).
T3 sequence (P08235 whole entry): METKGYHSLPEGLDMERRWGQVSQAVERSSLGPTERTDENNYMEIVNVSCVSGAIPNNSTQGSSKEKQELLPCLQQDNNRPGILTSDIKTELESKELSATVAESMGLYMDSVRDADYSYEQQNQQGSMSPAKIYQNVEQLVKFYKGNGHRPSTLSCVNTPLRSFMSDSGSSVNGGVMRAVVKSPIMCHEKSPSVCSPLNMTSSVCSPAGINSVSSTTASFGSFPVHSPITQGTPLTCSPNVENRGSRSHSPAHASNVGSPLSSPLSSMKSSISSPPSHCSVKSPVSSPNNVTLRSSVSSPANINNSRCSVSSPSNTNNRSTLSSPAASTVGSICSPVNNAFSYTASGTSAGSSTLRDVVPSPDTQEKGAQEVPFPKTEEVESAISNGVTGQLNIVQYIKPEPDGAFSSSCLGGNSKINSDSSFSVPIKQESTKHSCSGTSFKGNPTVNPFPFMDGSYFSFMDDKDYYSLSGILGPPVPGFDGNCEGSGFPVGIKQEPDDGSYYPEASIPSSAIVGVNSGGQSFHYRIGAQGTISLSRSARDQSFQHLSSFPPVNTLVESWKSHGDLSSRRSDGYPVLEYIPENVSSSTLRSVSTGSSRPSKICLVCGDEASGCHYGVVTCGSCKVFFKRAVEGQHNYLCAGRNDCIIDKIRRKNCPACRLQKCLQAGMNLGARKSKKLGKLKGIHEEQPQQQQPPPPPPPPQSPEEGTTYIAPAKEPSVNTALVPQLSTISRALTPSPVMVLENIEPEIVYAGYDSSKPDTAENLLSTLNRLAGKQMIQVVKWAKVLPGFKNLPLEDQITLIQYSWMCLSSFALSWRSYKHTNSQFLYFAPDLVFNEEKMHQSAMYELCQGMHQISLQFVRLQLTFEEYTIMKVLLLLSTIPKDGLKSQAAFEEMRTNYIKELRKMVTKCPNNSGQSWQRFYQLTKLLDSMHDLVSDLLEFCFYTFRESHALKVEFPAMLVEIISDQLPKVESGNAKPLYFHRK
In words: biochemical.
Description: Displacement of [3H]-aldosterone from recombinant human mineralocorticoid receptor expressed in baculovirus infected insect cells incubated overnight by liquid scintillation counting analysis

Assay [4] deals with T4, Glucocorticoid receptor (Homo sapiens, UniProt P04150).
T4 sequence (P04150 whole entry): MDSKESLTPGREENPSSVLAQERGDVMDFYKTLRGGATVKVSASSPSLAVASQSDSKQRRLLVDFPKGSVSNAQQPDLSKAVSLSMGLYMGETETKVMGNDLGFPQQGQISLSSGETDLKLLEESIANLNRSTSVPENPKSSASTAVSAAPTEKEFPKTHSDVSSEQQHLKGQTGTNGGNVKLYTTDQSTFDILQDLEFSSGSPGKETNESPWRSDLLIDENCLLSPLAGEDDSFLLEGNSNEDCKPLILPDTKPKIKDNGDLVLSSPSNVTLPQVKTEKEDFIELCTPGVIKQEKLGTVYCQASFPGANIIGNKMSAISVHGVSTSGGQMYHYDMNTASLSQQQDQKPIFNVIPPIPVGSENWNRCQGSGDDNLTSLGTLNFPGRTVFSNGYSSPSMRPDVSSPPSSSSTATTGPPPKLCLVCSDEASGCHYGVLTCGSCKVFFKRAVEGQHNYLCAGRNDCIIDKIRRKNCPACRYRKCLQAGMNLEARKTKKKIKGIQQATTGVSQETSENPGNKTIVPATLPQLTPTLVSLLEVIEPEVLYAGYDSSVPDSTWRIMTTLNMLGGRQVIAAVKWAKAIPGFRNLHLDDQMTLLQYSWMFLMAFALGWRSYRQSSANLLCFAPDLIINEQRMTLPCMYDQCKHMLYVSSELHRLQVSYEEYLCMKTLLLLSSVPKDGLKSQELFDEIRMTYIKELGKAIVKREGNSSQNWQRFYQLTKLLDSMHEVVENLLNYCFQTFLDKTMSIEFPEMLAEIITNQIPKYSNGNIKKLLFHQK
In words: biochemical.
Description: Displacement of [3H]-dexamethasone from recombinant full length human glucocorticoid receptor expressed in baculovirus infected insect cells incubated overnight by liquid scintillation counting analysis

Assay [5] deals with T5, Mineralocorticoid receptor (Homo sapiens) (UniProt P08235).
T5 sequence (whole entry): T3 sequence (P08235 whole entry)
In words: Antagonist activity at human wild-type mineralocorticoid receptor expressed in CHO-K1 cells assessed as inhibition of aldosterone-induced transcriptional activity incubated for 24 hrs in presence of 1 nM aldosterone by Steady-Glo reagent based reporter gene assay relative to control. The note with it: filed as antagonist. Set-up: scale not given: the % may be the effect or the level left. Format: cell-based. For orientation: A reporter such as luciferase makes a cellular process visible.

In another assay the test system is CHO-K1. In words: Antagonist activity at human mineralocorticoid receptor S810L mutant expressed in CHO-K1 cells assessed as inhibition of aldosterone-induced transcriptional activity at 300 nM incubated for 24 hrs in presence of aldosterone at 0.5 nM by reporter gene assay relative to control. Format: cell-based. Further details: scale not given: the % may be the effect or the level left. The note with it: filed as antagonist.

For `CS(=O)(=O)Nc1ccc(N(C(=O)c2ccccc2)c2ccc(F)cc2)cc1`, the Ki on Glucocorticoid receptor [1] stood at 41.5 µM.
Same read-out and setting: with `CC1(C)CN(c2ccc(F)cc2)c2ccc(NS(C)(=O)=O)cc2O1` the figure was 43.2 µM.
For `CCS(=O)(=O)Nc1ccc(C(C)(C)c2ccccc2)cc1`, the Ki amounted to 37.9 µM on Glucocorticoid receptor [1], 3.77 µM in assay [2] and 1.92 µM in assay [3].
As to `CC(C)(c1ccccc1)c1ccc(S(N)(=O)=O)cc1`, the Ki (at Glucocorticoid receptor [1]; in assay [2]) was above 100 µM throughout.
As to `CC(=O)Nc1ccc(C(C)(C)c2ccccc2)cc1`, the inhibition constant (Ki) (at Glucocorticoid receptor [1]; in assay [2]) was above 100 µM throughout.
On to `CS(=O)(=O)Nc1ccc2c(c1)OC(c1ccccc1)C(=O)N2c1ccc(F)cc1` (centres undefined), for which the Ki stood at 55.2 µM on Glucocorticoid receptor [1], 0.25 µM in assay [2] and 0.342 µM in assay [3].
For `CS(=O)(=O)Nc1ccc(N(Cc2ccccc2)c2ccccc2)cc1` the same measures were 29.1 µM, 0.357 µM and 0.147 µM.
For `CS(=O)(=O)Nc1ccc2c(c1)OC1(CCC1)C(=O)N2c1ccc(F)cc1` the same measures were above 100 µM, 0.626 µM and 0.152 µM.
With `CS(=O)(=O)Nc1ccc2c(c1)OCC(=O)N2c1ccc(F)cc1`, the Ki is above 100 µM at Glucocorticoid receptor [1] and 1.75 µM in assay [2].
As for `CNS(=O)(=O)c1ccc(C(C)(C)c2ccccc2)cc1`, the Ki at Glucocorticoid receptor [1] was above 100 µM; in assay [2], 4.31 µM; in assay [3] it was 1.37 µM.
In the same order, the values of `CC(C)(c1ccccc1)c1ccc(NS(C)(=O)=O)cc1` are 40 µM, 1.96 µM and 0.74 µM.
For `CC1Oc2cc(NS(C)(=O)=O)ccc2N(c2ccc(F)cc2)C1=O` (centres undefined), the Ki worked out at 136 µM at Glucocorticoid receptor [1], 0.201 µM in assay [2] and 0.16 µM in assay [3].
For `CS(=O)(=O)Nc1ccc(Nc2ccccc2)cc1`, the inhibition constant Ki (on Glucocorticoid receptor [1]; in assay [2]) was above 100 µM each time.
With `CC(C)(c1ccccc1)c1ccc(NS(=O)(=O)C(F)(F)F)cc1`, the Ki (on Glucocorticoid receptor [1]; in assay [2]) was above 100 µM throughout.
Consider `CS(=O)(=O)Nc1ccc(N(C(=O)c2ccccc2)c2ccccc2)cc1`, for which the results for the Ki (on Glucocorticoid receptor [1]; in assay [2]; in assay [3]) were 22.2 µM, 1.24 µM and 1.27 µM, respectively.
In the same order, the values of `CN(c1ccccc1)c1ccc(NS(C)(=O)=O)cc1` are 47.2 µM, 0.853 µM and 0.735 µM.
For `CS(=O)(=O)Nc1ccc2c(c1)OC1(CC1)C(=O)N2c1ccc(F)cc1` the same measures were above 100 µM, 0.549 µM and 0.808 µM.
As for `CCN(c1ccccc1)c1ccc(NS(C)(=O)=O)cc1`, the values for the Ki (on Glucocorticoid receptor [1]; in assay [2]; in assay [3]) were 45 µM, 1.56 µM and 0.607 µM, respectively.
Take `CN(C)S(=O)(=O)Nc1ccc(C(C)(C)c2ccccc2)cc1`: the Ki at Glucocorticoid receptor [1] came to 29 µM; in assay [2], 6.88 µM.
Consider `CC(=O)S[C@@H]1CC2=CC(=O)CC[C@]2(C)[C@H]2CC[C@@]3(C)[C@@H](CC[C@@]34CCC(=O)O4)[C@H]12` [SPIRONOLACTONE], for which the IC50 at Glucocorticoid receptor [4] was 6.05 µM. Besides, the Activity in assay [5] was found to be 98.3%; in the assay with CHO-K1 it was 58.5%.
On to `CC(=O)c1ccc(N(Cc2ccccc2)c2ccc(NS(C)(=O)=O)cc2)cc1`, for which the Ki at Glucocorticoid receptor [1] stood at 25.4 µM; in assay [2], 5.67 µM.
`CC(C)(c1ccccc1)c1cccc(NS(C)(=O)=O)c1`: the Ki was found to be 19.6 µM at Glucocorticoid receptor [1] and 12 µM in assay [2].

As usually defined, the Ki is a dissociation constant, usually derived from enzyme kinetics or from competition with a known ligand. Usually IC50 stands for the midpoint of a concentration-inhibition curve.
